The source of these data is patent US20090264384A1, “INDOLE, BENZIMIDAZOLE, AND BENZOLACTAM BORONIC ACID COMPOUNDS, ANALOGS THEREOF AND METHODS OF USE THEREOF” (Nuada, Inc., priority 2004, published 2009).

The structures appear in SMILES notation.

One data set has as its target T1, ETA(h) (Homo sapiens, UniProt P25101).
T1 construct: expressed in transfected cells; host or cells: CHO cells
In words: ETA(h) binding assay. The following applies: 1.0E−05 M; read-out: % Inhibition of Control Specific Binding.

The subject of another data set is Kainate. The data set can be described thus: Kainate binding assay. Also noted: species or system rat. To be noted: 1.0E−05 M.
The next data set deals with NMDA. In words: NMDA binding assay. Also noted: species or system rat. The following applies: 1.0E−05 M.
The target of a further data set is T2, H1(h) (Homo sapiens, UniProt P35367).
T2 construct: expressed in transfected cells; host or cells: HEK-293 cells
In words: biochemical. To be noted: 1.0E−05 M; read-out: % Inhibition of Control Specific Binding.

A further data set deals with H3. The data set can be described thus: H3 binding assay. Set-up: species or system rat. To be noted: 1.0E−05 M.
Data set [1] addresses N (neuronal) (α-BGTX-insensitive) (Rattus norvegicus, UniProt P09483+P12390). In words: N (neuronal) (α-BGTX-insensitive) binding assay. To be noted: 1.0E−05 M; read-out: % Inhibition of Control Specific Binding.
Another data set addresses T3, V2(h) (Homo sapiens, UniProt P30518).
T3 construct: expressed in transfected cells; host or cells: CHO cells
In words: V2(h) binding assay. The following applies: 1.0E−05 M; read-out: % Inhibition of Control Specific Binding.

In another data set the target is GABA transporter (Rattus norvegicus, UniProt P23978). In words: GABA transporter binding assay. To be noted: 1.0E−05 M; read-out: % Inhibition of Control Specific Binding.
The target of a further data set is T4, 5-HT transporter(h) (Homo sapiens, UniProt P31645).
T4 construct: expressed in transfected cells; host or cells: HEK-293 cells
In words: 5-HT transporter(h) binding assay. To be noted: read-out: % Inhibition of Control Specific Binding.

The target of the next data set is T5, Guanylyl cyclase (basal) (Bos taurus, UniProt P16068+P19687).
T5 construct: bovine lung; from tissue; host or cells: bovine lung
In words: Guanylyl cyclase (basal) enzyme assay. Format: biochemical, bovine. The following applies: 1.0E−05 M.

A further data set concerns Protein kinase C. In words: Protein kinase C enzyme assay. Format: biochemical, rat. To be noted: 1.0E−05 M.
Data set [2] concerns Catechol-O-methyl transferase. In words: Catechol-O-methyl transferase enzyme assay. It counts as biochemical, porcine. The following applies: 1.0E−05 M.
The next data set concerns the target T6, Tyrosine hydroxylase (Rattus norvegicus, UniProt P04177).
T6 construct: rat striatum; from tissue; host or cells: rat striatum
The data set can be described thus: Tyrosine hydroxylase enzyme assay. To be noted: 1.0E−05 M. Format: biochemical.

A further data set addresses HERG channel (Homo sapiens, UniProt Q12809). In words: ADME-Tox: QT Prolongation, HERG (patch-clamp). On the technique in general: The patch-clamp technique gives a direct electrical read-out from membranes.
The next data set concerns the target hERG (Homo sapiens, UniProt Q12809). In words: ADME-Tox: QT Prolongation, HERG (patch-clamp). The following applies: human, HEK-293 cells stably expressing HERG.
Data set [3] relates to colitis provoked by trinitrobenzene sulphonic acid (TNBS). The data set can be described thus: Rat model of colitis provoked by TNBS, 3 days, treatment from Day −1 (CCI-7155, CCI-7156). It counts as in vivo. To be noted: vs CMC group. On the procedure: The effects of CCI-7155 and CCI-7156, were evaluated in the TNBS model at one and two oral dose levels, administered twice a day by gavage, treatment commencing 1 day prior to challenge. A low intracolonic concentration of TNBS (10 mg) was used, known to produce reproducible yet not unduly severe mucosal injury in the colon, determined 3 days after instillation. Colonic macroscopic injury has been assessed, as has colonic weight as a reflection of colonic oedema and wet/dry weight to determine colonic water content, along with determination of myeloperoxidase (MPO) activity (Bradley et al, 1982) as an index of white cell infiltration for the evaluation of tissue injury. In addition to the test compounds [CCI-7155 and CCI-7156], the actions of sulfasalazine, a well-established and currently used treatment has also been evaluated in this model.
TNBS Challenge—Male Wistar rats (230-280 g) were randomised into groups of 8-10 before commencement of the study. Food was withdrawn 18 h (overnight) before TNBS administration, but the rats were allowed free access to drinking water. On the morning of the day of challenge, Day 0, the rats were transiently anaesthetised with ether and TNBS (10 mg in 0.25 ml of 50% ethanol) was instilled approximately 6-8 cm into the colon using a soft plastic catheter inserted in the rat rectum. The rats were allowed to recover with free access to food and drinking water. At the end of the experiment, 72 h after TNBS administration (i.e. on the morning of Day 3, between 9.00 and 11.00), the distal colon was dissected, and the distal 8 cm photographed and stored appropriately for subsequent analyses.
The following primary parameters were measured in the main study: (a) macroscopic scoring of distal 8 cm of colon; (b) myeloperoxidase levels in segments of distal 8 cm of colon. In addition, the weight of the colonic segment was assessed as an indirect and non-specific marker of oedema, and this was supported by measurement of the wet/dry ratio as an index of water content. The body weight of the animals was also determined and expressed as % change from the day of challenge.
Treatments. All challenged groups were dosed orally twice daily from Day −1. The groups for study were:
The compounds were thus administered orally, twice daily and given on Day −b 1 before TNBS administration, on Day 0, the day of TNBS administration and on Day 1 and 2. Tissues were removed 72 h after TNBS administration (on Day3). Dosing was performed once in the morning (Between 9:00 and 11:00) and once in the late afternoon (between 18:00 and 20:00).
Preparation of Compound. CCI-7155 and CCI-7156 were suspended in 0.5% w/v carboxy methyl cellulose in sterile water, to produce a smooth suspension as instructed, and administered in a volume of 2 ml/kg (˜0.5 ml per rat per dose).
Preparation of Sulfasalazine. the Doses of Sulfasalazine Used in the Present study were derived from previously published work with this agent in the TNBS model (Boughton-Smith et al, 1988; Sykes et al, 1999; Galvez et al, 2000; Bobin-Dubigeon et al, 2001). Sulfasalazine was suspended in carboxy methyl cellulose (0.5% w/v in sterile water; Sigma Chemical Co, compound reference M-0262) and administered p.o. in a volume of 0.5 ml. In previous studies in these laboratories, this concentration of carboxy methyl cellulose (CMC) had no significant effect on the extent of colitis as determined by macroscopic injury and changes in inflammatory markers following TNBS challenge.
Macrocopic Injury. The distal 8 cm portion of the colon (measured from the rectum) was removed, opened longitudinally and gently rinsed with ice-cold phosphate buffer (PBS; pH 7.4), blotted, weighed (Scaltec, Germany) and photographed (Samsung, Digimax 340, digital camera). The tissue was then cut into longitudinal strips, each strip being thus 8 cm long and included the whole of the zone of injury. […]

[4] abbreviates: 50 mg/kg/day p.o. in divided doses, 72 h after TNBS.

Usually inhibition stands for the change of the read-out against control, counted positive when it falls.

HERG channel, sequence (Q12809 whole entry): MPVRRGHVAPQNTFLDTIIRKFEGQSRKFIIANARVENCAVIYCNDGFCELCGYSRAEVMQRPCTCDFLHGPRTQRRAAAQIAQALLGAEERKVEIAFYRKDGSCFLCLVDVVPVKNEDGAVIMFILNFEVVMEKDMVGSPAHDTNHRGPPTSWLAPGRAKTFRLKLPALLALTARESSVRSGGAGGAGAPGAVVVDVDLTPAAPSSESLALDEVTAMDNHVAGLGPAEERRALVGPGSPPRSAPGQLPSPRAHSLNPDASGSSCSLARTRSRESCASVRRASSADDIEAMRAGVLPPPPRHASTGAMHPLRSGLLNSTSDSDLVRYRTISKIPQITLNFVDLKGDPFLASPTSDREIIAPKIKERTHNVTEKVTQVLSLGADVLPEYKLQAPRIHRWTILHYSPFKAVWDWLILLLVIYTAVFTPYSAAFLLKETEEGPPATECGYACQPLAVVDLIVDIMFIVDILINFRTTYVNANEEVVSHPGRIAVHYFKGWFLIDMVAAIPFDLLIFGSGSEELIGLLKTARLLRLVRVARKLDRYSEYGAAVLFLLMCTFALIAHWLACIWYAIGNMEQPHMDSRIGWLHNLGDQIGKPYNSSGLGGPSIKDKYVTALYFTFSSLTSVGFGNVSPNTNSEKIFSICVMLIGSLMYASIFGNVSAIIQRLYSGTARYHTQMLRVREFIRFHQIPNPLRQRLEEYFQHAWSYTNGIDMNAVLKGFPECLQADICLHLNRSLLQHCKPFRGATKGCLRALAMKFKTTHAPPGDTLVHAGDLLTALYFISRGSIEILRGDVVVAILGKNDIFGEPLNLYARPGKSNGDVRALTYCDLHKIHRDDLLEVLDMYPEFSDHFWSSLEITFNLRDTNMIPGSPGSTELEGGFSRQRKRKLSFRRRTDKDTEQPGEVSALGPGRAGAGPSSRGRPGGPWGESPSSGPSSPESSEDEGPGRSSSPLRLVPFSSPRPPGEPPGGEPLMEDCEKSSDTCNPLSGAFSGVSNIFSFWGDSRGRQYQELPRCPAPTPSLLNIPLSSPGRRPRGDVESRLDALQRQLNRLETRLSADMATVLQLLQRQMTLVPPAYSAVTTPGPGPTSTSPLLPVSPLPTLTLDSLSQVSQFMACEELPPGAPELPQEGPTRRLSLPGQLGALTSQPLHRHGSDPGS
hERG, sequence (Q12809 whole entry): as above
T4 sequence (P31645 whole entry): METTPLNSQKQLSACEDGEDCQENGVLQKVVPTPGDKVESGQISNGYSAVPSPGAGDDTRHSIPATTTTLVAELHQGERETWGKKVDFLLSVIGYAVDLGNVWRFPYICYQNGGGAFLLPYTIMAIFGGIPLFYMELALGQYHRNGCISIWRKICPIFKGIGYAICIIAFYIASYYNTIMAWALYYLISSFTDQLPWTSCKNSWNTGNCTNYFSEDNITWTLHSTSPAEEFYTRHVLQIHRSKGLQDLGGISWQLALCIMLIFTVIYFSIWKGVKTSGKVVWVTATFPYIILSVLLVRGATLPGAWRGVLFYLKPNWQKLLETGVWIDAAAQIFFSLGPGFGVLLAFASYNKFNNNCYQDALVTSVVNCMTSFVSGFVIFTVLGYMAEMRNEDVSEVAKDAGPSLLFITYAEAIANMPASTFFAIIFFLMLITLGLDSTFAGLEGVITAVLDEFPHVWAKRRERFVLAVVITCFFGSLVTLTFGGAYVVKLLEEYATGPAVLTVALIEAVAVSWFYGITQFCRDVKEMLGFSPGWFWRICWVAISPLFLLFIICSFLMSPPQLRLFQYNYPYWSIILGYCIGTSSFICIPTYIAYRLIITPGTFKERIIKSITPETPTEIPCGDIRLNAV
T3 sequence (P30518 whole entry): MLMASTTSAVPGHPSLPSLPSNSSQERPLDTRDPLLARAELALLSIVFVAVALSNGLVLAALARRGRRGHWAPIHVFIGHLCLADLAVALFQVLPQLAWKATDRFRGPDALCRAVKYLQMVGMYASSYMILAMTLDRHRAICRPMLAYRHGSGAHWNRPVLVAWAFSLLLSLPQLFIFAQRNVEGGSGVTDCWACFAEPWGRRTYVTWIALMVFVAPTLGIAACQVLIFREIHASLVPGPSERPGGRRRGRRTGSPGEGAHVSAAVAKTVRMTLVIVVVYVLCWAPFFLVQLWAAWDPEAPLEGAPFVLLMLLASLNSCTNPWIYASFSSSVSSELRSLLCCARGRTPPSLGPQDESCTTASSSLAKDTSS
T1 sequence (P25101 21-427): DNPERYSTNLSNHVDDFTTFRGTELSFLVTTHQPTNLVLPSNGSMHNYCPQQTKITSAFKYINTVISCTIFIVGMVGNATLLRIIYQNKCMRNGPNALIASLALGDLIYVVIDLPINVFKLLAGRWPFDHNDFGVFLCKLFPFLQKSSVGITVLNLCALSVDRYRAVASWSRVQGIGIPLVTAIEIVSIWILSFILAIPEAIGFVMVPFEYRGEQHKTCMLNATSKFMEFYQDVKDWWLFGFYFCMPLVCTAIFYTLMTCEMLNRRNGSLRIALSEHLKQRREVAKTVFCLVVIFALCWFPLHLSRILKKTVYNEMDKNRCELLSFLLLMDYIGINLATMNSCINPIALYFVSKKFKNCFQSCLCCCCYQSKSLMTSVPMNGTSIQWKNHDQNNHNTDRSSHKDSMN
T5 sequence (P19687 whole entry): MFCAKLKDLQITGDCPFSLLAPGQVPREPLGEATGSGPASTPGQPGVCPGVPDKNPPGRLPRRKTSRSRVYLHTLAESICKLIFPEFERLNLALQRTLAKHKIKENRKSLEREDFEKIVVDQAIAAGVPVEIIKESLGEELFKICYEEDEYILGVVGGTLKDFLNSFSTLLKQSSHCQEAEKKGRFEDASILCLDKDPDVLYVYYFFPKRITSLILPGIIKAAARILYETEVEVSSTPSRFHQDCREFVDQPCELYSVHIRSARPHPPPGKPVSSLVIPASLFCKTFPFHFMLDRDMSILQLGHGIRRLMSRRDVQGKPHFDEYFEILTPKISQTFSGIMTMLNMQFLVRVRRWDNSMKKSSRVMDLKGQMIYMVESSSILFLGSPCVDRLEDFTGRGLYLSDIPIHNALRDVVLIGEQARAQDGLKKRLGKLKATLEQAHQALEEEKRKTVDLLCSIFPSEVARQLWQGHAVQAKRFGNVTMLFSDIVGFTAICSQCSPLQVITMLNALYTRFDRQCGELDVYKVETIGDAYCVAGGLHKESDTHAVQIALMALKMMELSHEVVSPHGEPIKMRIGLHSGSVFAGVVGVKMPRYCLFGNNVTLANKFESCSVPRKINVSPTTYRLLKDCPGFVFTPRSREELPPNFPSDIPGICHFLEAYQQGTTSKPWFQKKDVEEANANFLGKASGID
T5 sequence (P16068 whole entry): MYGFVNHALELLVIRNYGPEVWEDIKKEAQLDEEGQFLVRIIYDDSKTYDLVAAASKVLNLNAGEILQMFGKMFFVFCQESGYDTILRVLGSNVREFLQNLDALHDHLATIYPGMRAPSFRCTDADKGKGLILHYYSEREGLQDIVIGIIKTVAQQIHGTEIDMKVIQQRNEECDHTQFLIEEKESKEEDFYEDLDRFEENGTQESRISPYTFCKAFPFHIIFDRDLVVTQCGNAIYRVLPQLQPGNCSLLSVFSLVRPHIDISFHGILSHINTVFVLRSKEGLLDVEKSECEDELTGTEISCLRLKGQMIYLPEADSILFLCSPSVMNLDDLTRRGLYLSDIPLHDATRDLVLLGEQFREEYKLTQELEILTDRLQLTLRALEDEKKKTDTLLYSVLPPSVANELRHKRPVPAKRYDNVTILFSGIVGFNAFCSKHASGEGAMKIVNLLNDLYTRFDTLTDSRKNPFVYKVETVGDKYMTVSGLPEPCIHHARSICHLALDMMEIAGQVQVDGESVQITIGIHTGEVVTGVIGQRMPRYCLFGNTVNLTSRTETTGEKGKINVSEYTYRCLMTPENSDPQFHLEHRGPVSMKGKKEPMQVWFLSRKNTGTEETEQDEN

On to `N#Cc1ccc2c(ccn2CCCCCB(O)O)c1` [Example 20, 5-(5-cyano-1H-indol-1-yl)pentylboronic acid], for which the inhibition at 10 µM on ETA(h) was -25%; on H1(h) it was 6%; in data set [1], 12%; on V2(h), 5%; on GABA transporter, -13%; on 5-HT transporter(h), 90%. Moreover, the figures for the “% Inhibition of Control Specific Binding” value in the data set on Kainate, in the data set on NMDA and in the data set with H3 were −6%, 19% and 0%, respectively. Moreover, the “% Stimulation Relative to Control” value on Guanylyl cyclase (basal) worked out at 0%. Besides, the entries for the “% Inhibition of Control Values” (in the data set on Protein kinase C; in data set [2]; at Tyrosine hydroxylase) were 0%, −5% and 4%, respectively. In addition, on HERG channel (HERG-channel blocker ranking, from 1 μM test (Table 17)), the “Potency Ranking” value is “Moderate (Moderate, 1 μM<IC50<10 μM)”. Also, at HERG channel (general potency ranking system (Roche et al.)), the “HERG-channel blocker potency class” value is “moderate”. On hERG, the inhibition at 1 µM worked out at 31.1%.
Turning to `O=C(O)c1cc(/N=N/c2ccc(S(=O)(=O)Nc3ccccn3)cc2)ccc1O` [sulfasalazine, reference compound], the “attenuation of TNBS-induced fall in body weight (% change in body weight at Day 0)” value in data set [3] (50 mg/kg/day p.o. in divided doses b.i.d.) was “did not reach statistical significance”. Besides, in data set [3] (setting [4]), the “reduction in area of macroscopic colonic injury” value is “significantly (P<0.001) reduced the extent of macroscopic injury”, the “reduction in colon weight” value was “significant reduction in colon weight was also not observed”, the “reduction in colonic MPO levels” value was “significantly reduced the elevated colonic levels of MPO” and the “reduction in colonic water content (wet/dry weight)” value is reported as “significant reduction in colon weight was also not observed”.
